Data reported in US12116371B2, “Substituted pyridines as irreversible inhibitors of menin-MLL interaction” (BIOMEA FUSION, INC., priority 2018, dated 2024).
Like-named read-outs stand apart in the source and are kept apart here.

Legend:
OCI-AML-3 cells [1] = assay: Long term proliferation assay, InCell read-out; type: cell-based; settings: for IC50: Homo sapiens
Description: (§1) Compounds of invention are tested in the 5 suspension lines by 14-day long-term proliferation assay.
(§2) The compound is tested in 10-pt dose titration (client will determine the starting concentration and the dilution scheme) and the final DMSO concentration is kept at 0.2%.
(§3) On Day 0, in a flat bottom 96-well plate, add 100 μL of cells per well at the densities optimized. Prepare compounds in DMSO at 500× final concentration. Dilute the compounds with DMSO at the dilution. Dilute the compounds in media at 3× final concentration. Add 50 μL of compound or DMSO at 3× final concentration to each well. Final volume in each well is 150 μL, and final concentration of DMSO is 0.2%. Also include 3 untreated control wells, by adding 50 μL of media alone. Incubate plates for 96 hours.
(§4) To do this take the total viable cell count calculated using step: • 1. Take the average of the replicates for each dose in order to be used in splitting the cells. • 2. Use a 96 well V-bottom plate to spin down the cells to remove old media and compound to split the cells. • 3. Based on the split ratio place the proper amount of media and cells into the V-bottom plate, and spin the plate at 1100 rpm for 5 minutes. • 4. Following the spin remove the media, careful not to disturb the cell pellet. Re-suspend pellet in 100 μL fresh media, and add to a new 96-well flat bottom plate. • 5. Add fresh compound, in the same manner as Step 3). • 6. Incubate plates for 72 hours. Repeat steps 5)-10) on Day 7. • 7. Incubate plates for 96 hours. Repeat Step 5)-10) on Day 11. • 8. Incubate 72 hours and repeat step 5) to take a final count. • 9. Data Analysis
(§5) To calculate growth for days 4, 7, 11, and 14: • 1. Calculate the split factor for day 4 to 7, day 7 to 11, and day 11-14. The split factor is the viable cells/mL on Day X (either 4, 7 or 11) divided by the density the cells are being split back to. • 2. For growth of cells from day 4 to 7, multiply the day 7 viable cells/mL density by the split factor from day 4. • 3. For growth of cells from day 7 to 11, multiply the day 11 viable cells/mL density by the days 4, and 7 split factors. • 4. For growth of cells from Day 11 to 14, multiply the Day 14 viable cells/mL density by the days 4, 7, and 11 split factors. • 5. Plot growth on semi-log chart (viable cells/mL on Y axis, in log, and days on X axis). • 6. The growth inhibition was calculated with the formula ((untreated cell numbers-treated cell numbers)/untreated cell)). • 7. Calculate the IC50 for each compound in each line using XLFit (Sigmoidal Dose-Response Model, y=(Bottom+((Top-Bottom)/(1+((IC50/×)^Hill))))).

KG-1 cells [2] = assay: Long term proliferation assay, InCell read-out; type: cell-based; settings: for IC50: Homo sapiens
Description: as §1, §2, §3, §4, §5

OCI-AML-3 cells [3] = assay: Long term proliferation assay, Cell Titer-Glo read-out; type: cell-based; settings: for IC50: Homo sapiens; for % max: OCI-AML3
Description: as §1, §2, §3, §4, §5

KG-1 cells [4] = assay: as above; type: cell-based; settings: for IC50: Homo sapiens
Description: as §1, §2, §3, §4, §5

NCI-H23 cells = assay: Proliferation assay, cells in adhesion; type: cell-based; settings: for IC50: Homo sapiens
MV4-11 cells = assay: Long term proliferation assay, InCell read-out; type: cell-based, human; settings: for IC50: Homo sapiens
Description: as §1, §2, §3, §4, §5

MOLM-13 cells = assay: Long term proliferation assay, InCell read-out; type: cell-based, human; settings: for IC50: Homo sapiens
Description: as §1, §2, §3, §4, §5

MIAPaCa-2/AMG510 cells = assay: Proliferation assay, cells in adhesion; type: cell-based; settings: for IC50: Homo sapiens

`C=CC(=O)NC1CCCN(Cc2ccnc(C(=O)Nc3ccc(-c4cc5c(N6CCOCC6)ncnc5[nH]4)cc3)c2)C1` (stereo not shown) [Compound 10] gave an IC50 (OCI-AML-3 cells [1]; OCI-AML-3, 96 h, OCI-AML-3, Day 4, read-out: Day 4 IC50) of 110 nM, an IC50 (OCI-AML-3 cells [1]; OCI-AML-3, 264 h, OCI-AML-3, Day 11, read-out: Day 11 IC50) of 120 nM and an IC50 (OCI-AML-3 cells [1]; OCI-AML-3, OCI-AML3, T4, read-out: IC50) of 110 nM. It also gave an IC50 (OCI-AML-3 cells [1]; OCI-AML-3, OCI-AML3, T4, read-out: pIC50 (converted)) of 110 nM, an IC50 (OCI-AML-3 cells [1]; OCI-AML-3, OCI-AML3, T11, read-out: IC50) of 120 nM and an IC50 (OCI-AML-3 cells [1]; OCI-AML-3, OCI-AML3, T11, read-out: pIC50 (converted)) of 123 nM. The “% max” value (OCI-AML-3 cells [1]; OCI-AML3, T4) was 100%, the “% max” value (OCI-AML-3 cells [1]; OCI-AML3, T11) was 100% and the IC50 (KG-1 cells [2]; KG-1, 96 h, KG-1, Day 4, read-out: Day 4 IC50) was 520 nM. The IC50 (KG-1 cells [2]; KG-1, 264 h, KG-1, Day 11, read-out: Day 11 IC50) was 300 nM, the IC50 (KG-1 cells [2]; KG-1, KG-1, T4, read-out: IC50) was 520 nM and the IC50 (KG-1 cells [2]; KG-1, KG-1, T4, read-out: pIC50 (converted)) was 525 nM. For the same compound, the IC50 (KG-1 cells [2]; KG-1, KG-1, T11, read-out: IC50) was 300 nM, the IC50 (KG-1 cells [2]; KG-1, KG-1, T11, read-out: pIC50 (converted)) was 302 nM and the “% max” value (KG-1 cells [2]; KG-1, T4) was 100%. The “% max” value (KG-1 cells [2]; KG-1, T11) was 100%, the IC50 (OCI-AML-3 cells [3]; OCI-AML-3, 96 h, OCI-AML-3, Day 4, Cell Titer-Glo, read-out: Day 4 IC50) was 190 nM and the IC50 (OCI-AML-3 cells [3]; OCI-AML-3, 168 h, OCI-AML-3, Day 7, Cell Titer-Glo, read-out: Day 7 IC50) was 140 nM. It also gave an IC50 (OCI-AML-3 cells [3]; OCI-AML-3, 264 h, OCI-AML-3, Day 11, Cell Titer-Glo, read-out: Day 11 IC50) of 100 nM, an IC50 (OCI-AML-3 cells [3]; OCI-AML-3, 336 h, OCI-AML-3, Day 14, Cell Titer-Glo, read-out: Day 14 IC50) of 120 nM and an IC50 (OCI-AML-3 cells [3]; OCI-AML-3, OCI-AML3, T4, CellTiter-Glo, read-out: IC50) of 190 nM. The IC50 (OCI-AML-3 cells [3]; OCI-AML-3, OCI-AML3, T4, CellTiter-Glo, read-out: pIC50 (converted)) was 191 nM, the IC50 (OCI-AML-3 cells [3]; OCI-AML-3, OCI-AML3, T11, CellTiter-Glo, read-out: IC50) was 100 nM and the IC50 (OCI-AML-3 cells [3]; OCI-AML-3, OCI-AML3, T11, CellTiter-Glo, read-out: pIC50 (converted)) was 100 nM. The “% max” value (OCI-AML-3 cells [3]; T4, CellTiter-Glo) was 99%, the “% max” value (OCI-AML-3 cells [3]; T11, CellTiter-Glo) was 99% and the IC50 (KG-1 cells [4]; 96 h, Day 4, Cell Titer-Glo, read-out: Day 4 IC50) was 470 nM. For the same compound, the IC50 (KG-1 cells [4]; 168 h, Day 7, Cell Titer-Glo, read-out: Day 7 IC50) was 330 nM, the IC50 (KG-1 cells [4]; 264 h, Day 11, Cell Titer-Glo, read-out: Day 11 IC50) was 270 nM and the IC50 (KG-1 cells [4]; 336 h, Day 14, Cell Titer-Glo, read-out: Day 14 IC50) was 240 nM. For the same compound, the IC50 (KG-1 cells [4]; T4, CellTiter-Glo, read-out: IC50) was 470 nM, the IC50 (KG-1 cells [4]; T4, CellTiter-Glo, read-out: pIC50 (converted)) was 468 nM and the IC50 (KG-1 cells [4]; T11, CellTiter-Glo, read-out: IC50) was 270 nM. The IC50 (KG-1 cells [4]; T11, CellTiter-Glo, read-out: pIC50 (converted)) was 269 nM, the “% max” value (KG-1 cells [4]; T4, CellTiter-Glo) was 99% and the “% max” value (KG-1 cells [4]; T11, CellTiter-Glo) was 99%. For the same compound, the IC50 (NCI-H23 cells; NCI-H23, NCI-H23, T4, read-out: IC50) was 350 nM, the IC50 (NCI-H23 cells; NCI-H23, NCI-H23, T4, read-out: pIC50 (converted)) was 355 nM and the IC50 (NCI-H23 cells; NCI-H23, NCI-H23, T7, read-out: IC50) was 200 nM. The IC50 (NCI-H23 cells; NCI-H23, NCI-H23, T7, read-out: pIC50 (converted)) was 263 nM, the IC50 (NCI-H23 cells; NCI-H23, NCI-H23, T11, read-out: IC50) was 190 nM and the IC50 (NCI-H23 cells; NCI-H23, NCI-H23, T11, read-out: pIC50 (converted)) was 191 nM. For the same compound, the “% max” value (NCI-H23 cells; NCI-H23, T4) was 92%, the “% max” value (NCI-H23 cells; NCI-H23, T7) was 96% and the “% max” value (NCI-H23 cells; NCI-H23, T11) was 98%. For the same compound, the IC50 (MV4-11 cells; MV4-11, 96 h, MV4-11, Day 4, read-out: Day 4 IC50) was 170 nM, the IC50 (MV4-11 cells; MV4-11, 264 h, MV4-11, Day 11, read-out: Day 11 IC50) was 170 nM and the IC50 (MV4-11 cells; MV4-11, MV4-11, T4, read-out: IC50) was 170 nM. For the same compound, the IC50 (MV4-11 cells; MV4-11, MV4-11, T4, read-out: pIC50 (converted)) was 174 nM, the IC50 (MV4-11 cells; MV4-11, MV4-11, T11, read-out: IC50) was 170 nM and the IC50 (MV4-11 cells; MV4-11, MV4-11, T11, read-out: pIC50 (converted)) was 174 nM. The “% max” value (MV4-11 cells; MV4-11, T4) was 90%, the “% max” value (MV4-11 cells; MV4-11, T11) was 90% and the IC50 (MOLM-13 cells; MOLM-13, 96 h, MOLM-13, Day 4, read-out: Day 4 IC50) was 80 nM. The IC50 (MOLM-13 cells; MOLM-13, 264 h, MOLM-13, Day 11, read-out: Day 11 IC50) was 90 nM, the IC50 (MOLM-13 cells; MOLM-13, MOLM-13, T4, read-out: IC50) was 80 nM and the IC50 (MOLM-13 cells; MOLM-13, MOLM-13, T4, read-out: pIC50 (converted)) was 77.6 nM. For the same compound, the IC50 (MOLM-13 cells; MOLM-13, MOLM-13, T11, read-out: IC50) was 90 nM, the IC50 (MOLM-13 cells; MOLM-13, MOLM-13, T11, read-out: pIC50 (converted)) was 91.2 nM and the “% max” value (MOLM-13 cells; MOLM-13, T4) was 98%. For the same compound, the “% max” value (MOLM-13 cells; MOLM-13, T11) was 98%, the IC50 (MIAPaCa-2/AMG510 cells; MIA PaCa-2, MIAPaCa-2/AMG510, T4, read-out: IC50) was 300 nM and the IC50 (MIAPaCa-2/AMG510 cells; MIA PaCa-2, MIAPaCa-2/AMG510, T4, read-out: pIC50 (converted)) was 295 nM. It also gave an IC50 (MIAPaCa-2/AMG510 cells; MIA PaCa-2, MIAPaCa-2/AMG510, T7, read-out: IC50) of 170 nM, an IC50 (MIAPaCa-2/AMG510 cells; MIA PaCa-2, MIAPaCa-2/AMG510, T7, read-out: pIC50 (converted)) of 166 nM and an IC50 (MIAPaCa-2/AMG510 cells; MIAPaCa-2/AMG510, T11, read-out: IC50) of 150 nM. The IC50 (MIAPaCa-2/AMG510 cells; MIAPaCa-2/AMG510, T11, read-out: pIC50 (converted)) was 151 nM, the “% max” value (MIAPaCa-2/AMG510 cells; MIAPaCa-2/AMG510, T4) was 92% and the “% max” value (MIAPaCa-2/AMG510 cells; MIAPaCa-2/AMG510, T7) was 98%. The “% max” value (MIAPaCa-2/AMG510 cells; MIAPaCa-2/AMG510, T11) was 99%.
